Data published in ChEMBL document CHEMBL3352383, “Trends and exceptions of physical properties on antibacterial activity for Gram-positive and Gram-negative pathogens” (J Med Chem, 2014).
Values after ≈ are worked out from the molar mass of the structure shown. Each block holds one molecule with its values, some of them ahead of it.

Experiments:
Escherichia coli [1] = assay: Antibacterial activity against tolC-deficient Escherichia coli; assay type: functional; conditions: for MIC: Escherichia coli
Escherichia coli [2] = assay: Antibacterial activity against tolC-deficient Escherichia coli in presence of 2% HSA; assay type: functional; conditions: for MIC: Escherichia coli
Escherichia coli [3] = assay: Antibacterial activity against wild-type Escherichia coli; assay type: functional; conditions: for MIC: Escherichia coli
[4] = Lipophilicity, log D of the compound; conditions: octanol/water
Pseudomonas aeruginosa [5] = assay: Antibacterial activity against wild-type Pseudomonas aeruginosa; assay type: functional; conditions: for MIC: Pseudomonas aeruginosa
Pseudomonas aeruginosa [6] = assay: Antibacterial activity against MeXABCDXY-deficient Pseudomonas aeruginosa; assay type: functional; conditions: for MIC: Pseudomonas aeruginosa
[7] = Inhibition of Escherichia coli TrmD
[8] = Inhibition of Haemophilus influenzae TrmD
Haemophilus influenzae = assay: Antibacterial activity against acrB-deficient Haemophilus influenzae; assay type: functional
Staphylococcus aureus [9] = assay: Antibacterial activity against wild-type Staphylococcus aureus; assay type: functional
Staphylococcus aureus [10] = assay: Antibacterial activity against wild-type Staphylococcus aureus in presence of 2% HSA; assay type: functional
Staphylococcus aureus [11] = assay: Ratio of MIC for wild-type Staphylococcus aureus in presence of 2% HSA to MIC for wild-type Staphylococcus aureus; assay type: functional
Escherichia coli [12] = assay: Ratio of MIC for […] tolC-deficient Escherichia coli in presence of 2% HSA to MIC for tolC-deficient Escherichia coli in presence of 2% HSA; assay type: functional
Pseudomonas aeruginosa [13] = assay: Ratio of MIC for wild-type Pseudomonas aeruginosa to MIC for MeXABCDXY-deficient Pseudomonas aeruginosa; assay type: functional
Escherichia coli [14] = assay: Ratio of MIC for wild-type Escherichia coli to MIC for tolC-deficient Escherichia coli; assay type: functional
[15] = Inhibition of Pseudomonas aeruginosa MurC
[16] = Inhibition of Haemophilus influenzae GlmU
[17] = Inhibition of Escherichia coli GlmU

Structure (SMILES): N=C(N)SCc1ccc(Cl)c(Cl)c1
Activity (Escherichia coli [1]): >32 µg/mL
Activity (Escherichia coli [3]): >32 µg/mL
logD [4]: 1.4
Activity (Pseudomonas aeruginosa [5]): 4 µg/mL
Activity (Pseudomonas aeruginosa [6]): 1 µg/mL

Structure (SMILES): CCCCCC1=C/C(=C/c2[nH]c(-c3ccc[nH]3)cc2OC)N=C1C [PRODIGIOSIN]
MIC (Escherichia coli [1]): 1 µg/mL
MIC (Escherichia coli [2]): > 32 µg/mL
MIC (Escherichia coli [3]): 2 µg/mL
MIC (Staphylococcus aureus [9]): 2 µg/mL (≈ 6.18 µM)
MIC (Staphylococcus aureus [10]): 16 µg/mL
Ratio (Staphylococcus aureus [11]): 8
Ratio (Escherichia coli [12]): 2

Structure (SMILES): N=C(N)SCc1ccc(Cl)cc1
MIC (Escherichia coli [3]): > 50 µM
MIC (Pseudomonas aeruginosa [5]): 12.5 µM
MIC (Pseudomonas aeruginosa [6]): 6.25 µM
Ratio (Pseudomonas aeruginosa [13]): 2

Structure (SMILES): CC(C)(O/N=C(\C(=O)N[C@@H]1C(=O)N2C(C(=O)[O-])=C(C[n+]3ccccc3)CS[C@H]12)c1csc(N)n1)C(=O)O [CEFTAZIDIME]
MIC (Escherichia coli [1]): 0.5 µM
MIC (Escherichia coli [3]): 0.8 µM
Ratio (Escherichia coli [14]): 1.6

Structure (SMILES): C[C@@H](O)[C@H]1C(=O)N2C(C(=O)O)=C([C@H]3CCCO3)S[C@H]12 [FAROPENEM]
MIC (Escherichia coli [1]): 6.25 µM
MIC (Escherichia coli [3]): 3.13 µM
MIC (Pseudomonas aeruginosa [5]): < 100 µM

Structure (SMILES): OCC1CCCCN1c1nc(Nc2cc(C3CC3)[nH]n2)c2cn[nH]c2n1 (stereo not drawn)
MIC (Escherichia coli [1]): > 64 µg/mL
MIC (Escherichia coli [3]): > 64 µg/mL
logD [4]: 2.85
MIC (Pseudomonas aeruginosa [5]): > 64 µg/mL
MIC (Pseudomonas aeruginosa [6]): > 64 µg/mL
IC50 [15]: 1000 nM
IC50 [7]: 1200 nM

Structure (SMILES): COc1cc(OC)c(S(=O)(=O)N2c3ccccc3Oc3ccccc32)cc1NC(=O)CCC(=O)O
MIC (Escherichia coli [1]): > 64 µg/mL
MIC (Haemophilus influenzae): 32 µg/mL (≈ 64.2 µM)
IC50 [16]: 23 nM
IC50 [17]: 7 nM

Structure (SMILES): CC[C@]1(C)C[C@@H](OC(=O)CSc2nnc(N)[nH]2)[C@]2(C)[C@H](C)CC[C@]3(CCC(=O)[C@H]32)[C@@H](C)[C@@H]1O [AZAMULIN]
MIC (Escherichia coli [1]): 4 µg/mL
MIC (Escherichia coli [2]): 8 µg/mL
MIC (Escherichia coli [3]): > 64 µg/mL
MIC (Staphylococcus aureus [9]): 2 µg/mL (≈ 4.18 µM)
MIC (Staphylococcus aureus [10]): 2 µg/mL
Ratio (Staphylococcus aureus [11]): 1
Ratio (Escherichia coli [12]): 2

Second part, led by results:

logD [4]: 3.22
Structure (SMILES): CC(C)(C)c1nc(-c2ccc3c(c2)OCCO3)c(-c2ccncc2)[nH]1
Activity (Escherichia coli [1]): 0.25 µg/mL
Activity (Escherichia coli [2]): 4 µg/mL
Activity (Escherichia coli [3]): 32 µg/mL

MIC (Escherichia coli [1]): > 64 µg/mL
IC50 [7]: 17000 nM
IC50 [8]: < 5000 nM
MIC (Haemophilus influenzae): > 64 µg/mL
Structure (SMILES): Oc1ncnc2scc(-c3ccccc3)c12

MIC (Escherichia coli [1]): > 64 µg/mL
logD [4]: 0.37
IC50 [7]: 290 nM
IC50 [8]: 420 nM
MIC (Haemophilus influenzae): > 64 µg/mL
Structure (SMILES): O=C(NCc1ccc(CN2CC[C@H](O)C2)cc1)c1csc2nc[nH]c(=O)c12

MIC (Escherichia coli [1]): 0.39 µM
MIC (Escherichia coli [3]): > 25 µM
MIC (Pseudomonas aeruginosa [5]): 25 µM
MIC (Pseudomonas aeruginosa [6]): 3.13 µM
Structure (SMILES): CO[C@H]1CN(c2nc(-c3cnc(N4CCN[C@H](C)C4)cn3)c(C(=O)O)s2)CC[C@H]1NC(=O)c1[nH]c(C)c(Cl)c1Cl
Ratio (Escherichia coli [14]): 64
Ratio (Pseudomonas aeruginosa [13]): 8

MIC (Escherichia coli [1]): 0.5 µg/mL
MIC (Escherichia coli [2]): 6.4 µg/mL
MIC (Escherichia coli [3]): 16 µg/mL
MIC (Staphylococcus aureus [9]): 32 µg/mL (≈ 52.2 µM)
MIC (Staphylococcus aureus [10]): > 64 µg/mL
Structure (SMILES): Cc1cc(O)c(C(=O)N[C@@H](C(=O)N[C@@H]2C(=O)N3C(C(=O)O)=C(CSc4nnnn4C)CS[C@H]23)c2ccc(O)cc2)cn1 [CEFPIRAMIDE]
Ratio (Escherichia coli [12]): 128

MIC (Escherichia coli [1]): 0.08 µM
MIC (Escherichia coli [3]): 0.24 µM
MIC (Pseudomonas aeruginosa [5]): 5.2 µM
MIC (Pseudomonas aeruginosa [6]): < 0.08 µM
Structure (SMILES): CC1COc2c(N3CCN(C)CC3)c(F)cc3c(=O)c(C(=O)O)cn1c23 (stereo not drawn) [OFLOXACIN]
Ratio (Escherichia coli [14]): 3
Ratio (Pseudomonas aeruginosa [13]): 62

logD [4]: 4.3
Structure (SMILES): Fc1ccc(COc2cccc(-c3n[nH]cc3-c3ccncc3)c2)cc1
Activity (Escherichia coli [1]): <0.063 µg/mL
Activity (Escherichia coli [2]): 16 µg/mL
Activity (Escherichia coli [3]): 8 µg/mL

MIC (Escherichia coli [1]): 2 µg/mL
MIC (Escherichia coli [3]): > 64 µg/mL
logD [4]: 3.33
MIC (Pseudomonas aeruginosa [5]): > 64 µg/mL
MIC (Pseudomonas aeruginosa [6]): 1.5 µg/mL
IC50 [15]: 1 nM
IC50 [7]: < 0.5 nM
Structure (SMILES): Cn1nc(Nc2nc(N[C@H](CO)c3ccccc3)nc3[nH]ncc23)cc1C(C)(C)C

MIC (Escherichia coli [1]): > 64 µg/mL
MIC (Haemophilus influenzae): > 64 µg/mL
IC50 [16]: 7800 nM
IC50 [17]: 2100 nM
Structure (SMILES): COc1cc(OC)c(S(=O)(=O)N2c3ccccc3CC2C)cc1NC(C)=O (stereo not drawn)

MIC (Escherichia coli [1]): 12.5 µM
MIC (Escherichia coli [3]): 12.5 µM
MIC (Pseudomonas aeruginosa [5]): 6.25 µM
MIC (Pseudomonas aeruginosa [6]): 6.25 µM
Structure (SMILES): NC[C@H]1OB(O)c2ccccc21
Ratio (Escherichia coli [14]): 1
Ratio (Pseudomonas aeruginosa [13]): 1

logD [4]: 2.3
Structure (SMILES): CC(C)(O)[C@H](NC(=O)c1ccc(C#CC#CC2CC2)cc1)C(=O)NO
Activity (Escherichia coli [1]): <0.063 µg/mL
Activity (Escherichia coli [2]): <0.063 µg/mL
Activity (Escherichia coli [3]): <0.063 µg/mL
Activity (Pseudomonas aeruginosa [5]): 0.25 µg/mL
Activity (Pseudomonas aeruginosa [6]): <0.06 µg/mL
